Laboratory results taken from patent US9744142B2, “Formulations of volatile anesthetics and methods of use for reducing inflammation” (Board of Regents, The University of Texas Systems, priority 2009, dated 2017).

Experiment: Isoflurane remaining in uncapped vials over time, determined by weighing (volatility)
Type: physicochemical
Details: uncapped vial
Experimental: In the Examples that follow, the stability of isoflurane in the described compositions was determined in two ways. First, the compositions were examined for the presence of phase separation at the macroscopic level. Secondly, isoflurane content of the compositions was determined by weighing the remaining isoflurane in the composition when they were left uncapped over time. Briefly, glass vials were filled with 5-10 ml of the composition vehicle and then weighed; one of them received only vehicle (i.e., no isoflurane) and served as control. The other vials received varying amounts of isoflurane. They were left uncapped in the hood. Over time, the vials were weighed to see if the isoflurane stayed in the composition or had evaporated. The amount evaporated over time in the vehicle control was subtracted from that in the isoflurane-containing composition.
The pure form of isoflurane is a volatile anesthetic. In order to assess the volatility of isoflurane, two vials received the indicated amounts of pure form isoflurane. The vials were placed in the chemical fume hood and left uncapped. The vials were weighed at the indicated times to determine the amount of evaporated isoflurane. As it is shown in the table below 0.7893 g isoflurane was evaporated within 3 hours, while 3.4825 g isoflurane took approximately 8 hrs to evaporate completely. These amounts of isoflurane are similar to the amounts of isoflurane that were used to prepare the isoflurane compositions in the Examples that follow.

## FC(F)OC(Cl)C(F)(F)F (stereo not shown) [isoflurane]
Pure isoflurane 0.7893 g
  time until isoflurane was evaporated: ≤ 3 h
Pure isoflurane 3.4825 g
  time to evaporate completely: approximately 8 hrs
Pure isoflurane 3.4825 g, 7 h, remaining iso as in the neighbouring columns
  7 h: 13
Pure isoflurane 3.4825 g, 8 h, remaining iso as in the neighbouring columns
  8 h: 3
